Test results: ChEMBL document CHEMBL1201862, “PubChem BioAssay data set” (2004)
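Briefly, cells in 96-well plates were exposed to five compound concentrations for 48 h, and endpoints were estimated by linear interpolation. GI50 is the concentration that inhibits growth by half.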 Activity calls are given as the source filed them. Cut-off read from the data, not from the text of the source: active = GI50 up to about 1.1 µM and inactive = higher.

Tests used:
Assay in all cases: DTP human tumour cell line panel, 48 h
DLD-1 = tested on: DLD-1
DMS-273 = tested on: DMS-273
HOP-18 = tested on: HOP-18
KM-20L2 = tested on: KM-20L2
M19-MEL = tested on: M19-MEL
XF498 = tested on: XF498
Hs-578T = tested on: Hs-578T
DMS-114 = tested on: DMS-114
RXF 631 = tested on: RXF 631

COc1cc(C(=O)C/C(CCC(=O)Nc2ccc(Cl)cc2Cl)=N/Nc2nnc(C)n2N)ccc1O
GI50 (DLD-1): > 100 µM (inactive)
GI50 (DMS-273): > 100 µM (inactive)
GI50 (HOP-18): > 100 µM (inactive)
GI50 (KM-20L2): > 100 µM (inactive)
GI50 (M19-MEL): > 100 µM (inactive)
GI50 (XF498): > 100 µM (inactive)

c1ccc2cc(CN3CCC(C4CCN(Cc5ccc6ccccc6c5)CC4)CC3)ccc2c1
GI50 (Hs-578T): 2.49 µM (inactive)

CC1=Nc2ccccc2/C1=C\c1c(C)[nH]c2ccccc12
GI50 (Hs-578T): 8.63 µM (inactive)

Nn1c(S)nnc1N/N=C1/C(=O)Nc2ccccc21
GI50 (DLD-1): 48.9 µM (inactive)
GI50 (DMS-114): > 100 µM (inactive)
GI50 (HOP-18): 70.5 µM (inactive)
GI50 (KM-20L2): > 100 µM (inactive)
GI50 (M19-MEL): > 100 µM (inactive)
GI50 (XF498): 37.9 µM (inactive)

COc1ccc(C2=NN(c3ccccc3)C[N+](c3ccc(C)cc3)=N2)cc1
GI50 (DLD-1): 40.6 µM (inactive)
GI50 (DMS-114): 24.7 µM (inactive)
GI50 (DMS-273): > 10 µM (inactive)
GI50 (KM-20L2): 59 µM (inactive)
GI50 (M19-MEL): 29.9 µM (inactive)
GI50 (XF498): 25.3 µM (inactive)

CC(=O)Nc1ccc(C(=O)NN2C(=O)C(Cl)C2c2ccccc2O)cc1 (configuration not stated)
GI50 (DLD-1): > 100 µM (inactive)
GI50 (DMS-273): 99.1 µM (inactive)
GI50 (KM-20L2): > 100 µM (inactive)
GI50 (XF498): 28.1 µM (inactive)

CSc1nc(Cl)c2c(n1)Sc1nc3ccccc3n1N=C2
GI50 (Hs-578T): 26.7 µM (inactive)

CCOC(=O)/C(=C/c1cccc(C#N)c1)N(CC)CC
GI50 (DLD-1): > 100 µM (inactive)
GI50 (DMS-114): > 100 µM (inactive)
GI50 (HOP-18): > 100 µM (inactive)
GI50 (M19-MEL): > 100 µM (inactive)
GI50 (RXF 631): > 100 µM (inactive)
GI50 (XF498): > 100 µM (inactive)

O=C1C=CC2(C=C1)CCC(=O)O2
GI50 (Hs-578T): 10.6 µM (inactive)

CSc1n[nH]c2[nH]nc(C)c12
GI50 (Hs-578T): > 100 µM (inactive)

CCN(CC)C(=O)Cn1c(C)cc2ccccc21
GI50 (Hs-578T): > 100 µM (inactive)

CN(C)c1ccc(-c2ccc(N(C)C)c3n[se]nc23)c2n[se]nc12
GI50 (Hs-578T): 88.1 µM (inactive)

O=C1c2ccccc2C(=O)N1n1c(Cc2ccc(Cl)cc2)n[nH]c1=O
GI50 (Hs-578T): > 100 µM (inactive)

CC1=Nc2ccccc2S(=O)(=O)N1
GI50 (DLD-1): > 100 µM (inactive)
GI50 (DMS-114): > 100 µM (inactive)
GI50 (DMS-273): > 100 µM (inactive)
GI50 (HOP-18): > 100 µM (inactive)
GI50 (KM-20L2): > 100 µM (inactive)
GI50 (M19-MEL): > 100 µM (inactive)

COc1cccc(Nc2nc(N)nc(N)c2N=O)c1
GI50 (Hs-578T): 14.5 µM (inactive)

CN1CCN(Cn2nc(-c3ccccc3)n(/N=C/c3ccc(-c4ccc(Cl)cc4Cl)o3)c2=S)CC1
GI50 (Hs-578T): 7.91 µM (inactive)

CC12CCC(=O)N1c1cccnc1N2 (configuration not stated)
GI50 (DLD-1): > 100 µM (inactive)
GI50 (DMS-114): > 100 µM (inactive)
GI50 (KM-20L2): > 100 µM (inactive)
GI50 (M19-MEL): > 100 µM (inactive)
GI50 (XF498): > 100 µM (inactive)

O=C1C2CCCCC2C(=O)N1n1c(Cc2ccc(Cl)cc2)n[nH]c1=O (configuration not stated)
GI50 (Hs-578T): > 100 µM (inactive)

CCC1CC(C)C(O)/C=C/C=C/CC(C)OC(=O)CC(O)C(OC)C1OC1OC(C)CC(O)(C(C)=O)C1O (configuration not stated)
GI50 (Hs-578T): 19.7 µM (inactive)

COc1ccc(/C=C2\N=C(c3ccccc3)N(NC3=NC(=O)CC(=O)N3)C2=O)cc1
GI50 (Hs-578T): > 100 µM (inactive)

COc1cc(CC2C(=O)OCC2Cc2ccc(OC)c(OC)c2)ccc1O (configuration not stated)
GI50 (Hs-578T): > 100 µM (inactive)

C/C(=C\c1ccc(Cl)c(Cl)c1)[N+](=O)[O-]
GI50 (Hs-578T): 3.24 µM (inactive)

COc1ccc(/C(C)=N/NC(=O)c2ccncc2)c(OC)c1
GI50 (Hs-578T): > 10 µM (inactive)

CN(C)P(=O)(/C(N)=N/Nc1ccc([N+](=O)[O-])cc1)N(C)C
GI50 (DLD-1): > 100 µM (inactive)
GI50 (DMS-114): 61.7 µM (inactive)
GI50 (DMS-273): > 100 µM (inactive)
GI50 (KM-20L2): > 100 µM (inactive)
GI50 (M19-MEL): > 100 µM (inactive)
GI50 (XF498): > 100 µM (inactive)

CNC(=O)Oc1ccc(C(=S)Nc2ccc(Br)cc2)cc1
GI50 (Hs-578T): 19.8 µM (inactive)

CCc1ccc(Nc2ccc([N+](=O)[O-])cc2[N+](=O)[O-])cc1
GI50 (DLD-1): > 100 µM (inactive)
GI50 (DMS-114): 29.4 µM (inactive)
GI50 (DMS-273): 96.6 µM (inactive)
GI50 (KM-20L2): 69.3 µM (inactive)
GI50 (M19-MEL): > 100 µM (inactive)
GI50 (XF498): > 100 µM (inactive)

Cc1cccc(NS(=O)(=O)c2ccc3c(c2)OCCOCCOCCOCCO3)c1
GI50 (Hs-578T): > 100 µM (inactive)

C[C@]12CC(C#N)C(=O)C(O)=C1CC[C@@H]1C2CC[C@@]2(C)C1CC[C@@H]2O (some centres not stated)
GI50 (DLD-1): 58.3 µM (inactive)
GI50 (DMS-114): 49 µM (inactive)
GI50 (DMS-273): 17.3 µM (inactive)
GI50 (KM-20L2): 95.5 µM (inactive)
GI50 (XF498): 18.8 µM (inactive)

CNC(SC)=C1C(=O)OC(C)(C)OC1=O
GI50 (DLD-1): 22.2 µM (inactive)
GI50 (DMS-114): 34.8 µM (inactive)
GI50 (DMS-273): 0.499 µM (active)
GI50 (HOP-18): > 100 µM (inactive)
GI50 (KM-20L2): > 100 µM (inactive)
GI50 (M19-MEL): > 100 µM (inactive)
GI50 (XF498): > 100 µM (inactive)

N#Cc1c(C#N)c(-c2ccccc2)n(-c2ccccc2)c1N
GI50 (Hs-578T): 21 µM (inactive)

CCN(CC)c1ccc(C2NC(=O)c3ccccc3N2)cc1 (configuration not stated)
GI50 (Hs-578T): 9.64 µM (inactive)

COc1cccc(OC)c1NC(=O)C(=O)Nn1c(NNC(=O)c2ccncc2)nc2ccccc2c1=O
GI50 (Hs-578T): > 100 µM (inactive)

CCOC(=O)C1=C(C(=O)OCC)SC2(S1)C(C(=O)OCC)=C(C(=O)OCC)Sc1c2ssc1=O
GI50 (Hs-578T): 1.97 µM (inactive)

COc1ccc(Cl)cc1NC(=O)O/N=C(\Cl)C(C)C
GI50 (Hs-578T): 23.7 µM (inactive)

COCc1nc2c(OC)c(-c3nc4ccc(N5CCN(C)CC5)cc4[nH]3)cc(OC)c2[nH]1
GI50 (Hs-578T): 69.8 µM (inactive)
